Data on 48 compounds can be found in US6727264B1 (Synaptic Pharmaceutical Corporation, priority 2001, dated 2004).

This experiment concerns the target rat MCH-1 (Rattus norvegicus, UniProt P97639). Put plainly: Radioligand binding assay at cloned rat MCH1 receptor ([3H] Compound A). Further details: host or cells: Peak rapid 293 (Peakr293) cells, transient calcium phosphate transfection, membranes. The following applies: cloned rat MCH1 receptor, 0.08 nM [3H] Compound A, read-out: Ki (nM) rMCH1.

Where two headings read alike, the source gives them in different places.

rat MCH-1, sequence (P97639 whole entry): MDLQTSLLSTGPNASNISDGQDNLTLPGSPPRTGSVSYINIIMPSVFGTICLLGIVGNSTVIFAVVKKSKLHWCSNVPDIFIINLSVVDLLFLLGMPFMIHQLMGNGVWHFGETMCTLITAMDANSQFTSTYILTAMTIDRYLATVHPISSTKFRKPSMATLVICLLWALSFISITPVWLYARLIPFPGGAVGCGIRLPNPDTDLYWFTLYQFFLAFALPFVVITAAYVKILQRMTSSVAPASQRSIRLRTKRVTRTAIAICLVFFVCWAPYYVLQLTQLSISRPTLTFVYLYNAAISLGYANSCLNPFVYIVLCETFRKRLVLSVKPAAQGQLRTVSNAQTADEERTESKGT

As a reminder, the Ki is the equilibrium dissociation constant of an inhibitor or competing ligand from its target. `CC(C)C(=O)Nc1cccc(C2CCN(CCCc3c(-c4ccc(Cl)cc4)n(C)c4ccccc34)CC2)c1` [Example 691]: the inhibition constant (Ki) (Peakr293 cell membranes) is 16.3 nM.
Same read-out and setting: the figure for `CC(C)C(=O)Nc1cccc(C2CCN(Cc3cccc4c3ccn4-c3ccccc3C(F)(F)F)CC2)c1` [Example 876] is 758 nM.
In the case of `CC(C)C(=O)Nc1cccc(C2CCN(CCC(Oc3ccc(Cl)cc3)c3ccc(Br)cc3)CC2)c1` (stereo not drawn) [Example 159], the Ki (membranes from Peakr293 cells) was 4.5 nM.
As for `CC(C)C(=O)Nc1cccc(C2CCN(CCCNC(=O)Nc3ccccc3)CC2)c1` [Example 618], the Ki (Peakr293 cell membranes) is 400 nM.
As to `CC(=O)c1ccccc1OC(CCN1CCC(c2cccc(NC(=O)C(C)C)c2)CC1)c1ccc2c(c1)CCC2` (stereo not drawn) [Example 157, N-(3-{1-[3-(2- ACETYLPHENOXY)-3-(2,3-DIHYDRO-1H-INDEN-5-YL)PROPYL]-4-PIPERIDINYL}PHENYL)-2-METHYLPROPANAMIDE], the Ki (membranes from Peakr293 cells) was 15.4 nM.
The same measure, in the same setting: the same measure for `CC(C)C(=O)Nc1cccc(C2CCN(CCC(Oc3ccccc3)c3ccc4c(c3)CCC4)CC2)c1` (stereo not drawn) [Example 156]: 8.8 nM.
Take `COc1cccc2c(CCCN3CCC(c4cccc(NC(=O)C(C)C)c4)CC3)c[nH]c12` [Example 418]: the Ki (Peakr293 cell membranes) came out at 51.6 nM.
Take `CC(C)C(=O)Nc1cccc(C2CCN(Cc3ccc4c(c3)OCCO4)CC2)c1` [Example 223]: where the note is “membranes from Peakr293 cells”, the Ki came out at 318 nM.
`CC(C)C(=O)Nc1cccc(C2CCN(Cc3cn(-c4cccnc4)c4ccccc34)CC2)c1` [Example 500]: the Ki (Peakr293 cell membranes) worked out at 29.4 nM.
`CC(C)C(=O)Nc1cccc(C2CCN(Cc3ccc(N4CCCCC4)c([N+](=O)[O-])c3)CC2)c1` [Example 214]: where the note is “membranes from Peakr293 cells”, the Ki was 56.3 nM.
Take `COc1cccc(-n2ccc3cccc(CN4CCC(c5cccc(NC(=O)C(C)C)c5)CC4)c32)c1` [Example 860]: the Ki (Peakr293 cell membranes) was 40.5 nM.
On to `CCn1c2ccccc2c2cc(CN3CCC(c4cc(NC(=O)C(C)C)ccc4C)CC3)ccc21` [Example 270], for which the Ki (membranes from Peakr293 cells) was 3.4 nM.
Turning to `COc1cccc2c(CN3CCC(c4cccc(NC(=O)C(C)C)c4)CC3)cn(-c3ccccc3)c12` [Example 511], where the note is “Peakr293 cell membranes”, the Ki stood at 6 nM.
Consider `CC(C)C(=O)Nc1cccc(C2CCN(CC[C@H](NC(=O)c3ccc(-c4ccccc4)cc3)c3ccccc3)CC2)c1` [Example 308], for which the Ki (membranes from Peakr293 cells) turned out to be 402 nM.
With `Cc1ccc(C(=O)CCCN2CCC(c3cccc(NC(=O)C4CC4)c3)CC2)cc1C` [Example 546], where the note is “Peakr293 cell membranes”, the inhibition constant Ki is 87.9 nM.
Same read-out and setting: the same measure for `CCC(=O)Nc1cccc(C2CCN(CCCCC(=O)c3ccccc3Cl)CC2)c1` [Example 566]: 77.8 nM.
Same read-out and setting: the same measure for `CC(C)C(=O)Nc1cccc(C2CCN(CCCCCC(Oc3ccccc3F)c3ccccc3F)CC2)c1` (stereo not drawn) [Example 889]: 8.6 nM; for `CSc1ccccc1NC(=O)N[C@@H](CCN1CCC(c2cccc(NC(=O)C(C)C)c2)CC1)c1ccccc1` [Example 612]: 121 nM.
As for `CC(C)CCOc1ccc(CN2CCC(c3cccc(NC(=O)C(C)C)c3)CC2)c2ccccc12` [Example 195], the Ki (membranes from Peakr293 cells) is 106 nM.
As for `CC(C)C(=O)Nc1cccc(C2CCN(Cc3cn(-c4ccccc4)c4cc(OCc5ccccc5)ccc34)CC2)c1` [Example 504], the Ki (Peakr293 cell membranes) was 22.5 nM.
Same read-out and setting: the same measure for `CC(C)C(=O)Nc1cccc(C2CCN(CCCCC(=O)c3ccc([N+](=O)[O-])cc3)CC2)c1` [Example 661]: 33.3 nM.
The same measure, in the same setting: the figure for `CC(C)C(=O)Nc1cccc(C2CCN(Cc3cn(-c4ccccc4Cl)c4ccccc34)CC2)c1` [Example 460] is 9.1 nM.
Turning to `CC(C)CCOc1ccc2ccccc2c1CN1CCC(c2cccc(NC(=O)C(C)C)c2)CC1` [Example 188], the Ki (membranes from Peakr293 cells) was found to be 531 nM.
`CC(C)C(=O)Nc1cccc(C2CCN(CCCNC(=O)c3cccnc3Oc3ccc(Cl)cc3)CC2)c1` [Example 641]: the Ki (Peakr293 cell membranes) amounted to 14.2 nM.
Still for that read-out and setting: the same measure for `O=C(Nc1cccc(C2CCN(Cc3c[nH]c4ccc(F)cc34)CC2)c1)C1CC1` [Example 481]: 664 nM.
Consider `COc1ccc(C(CCN2CCC(c3cccc(NC(=O)C(C)C)c3)CC2)Oc2ccc(Br)cc2)cc1` (stereo not drawn) [Example 181], for which, where the note is “membranes from Peakr293 cells”, the Ki was determined as 91.9 nM.
On the same count and under the same terms, the figure for `CC(C)C(=O)Nc1cccc(C2CCN(C[C@H](C)COc3ccccc3Cl)CC2)c1` [Example 361] is 311 nM.
With `Cc1ccc(-n2ccc3c(CN4CCC(c5cccc(NC(=O)C(C)C)c5)CC4)cccc32)cc1C` [Example 862], the inhibitory constant (Ki) (Peakr293 cell membranes) came to 438 nM.
Regarding `CC(C)C(=O)Nc1cccc(C2CCN(CCC(Oc3ccc(F)cc3)c3ccc(F)cc3)CC2)c1` (stereo not drawn) [Example 139], the Ki (membranes from Peakr293 cells) was 38.7 nM.
On the same count and under the same terms, the figure for `CC(C)C(=O)Nc1cccc(C2CCN(CCCC(c3ccc(F)cc3)c3ccc(F)cc3)CC2)n1` [Example 265] is 13.5 nM; for `Cc1onc(-c2c(F)cccc2Cl)c1C(=O)NCCCN1CCC(c2cccc(NC(=O)C(C)C)c2)CC1` [Example 328] it is 47.6 nM.
For the compound `Cc1ccccc1-c1cccc2c(CN3CCC(c4cccc(NC(=O)C(C)C)c4)CC3)c[nH]c12` [Example 524], for the setting “Peakr293 cell membranes”, the Ki turned out to be 199 nM.
`COc1ccc(O[C@H](CN2CCC(c3cccc(NC(=O)C(C)C)c3)CC2)c2ccccc2)cc1OC` [Example 336]: under “membranes from Peakr293 cells”, the inhibition constant Ki is 693 nM.
With `CC(C)C(=O)Nc1cccc(C2CCN(CCCCC3OCCO3)CC2)c1` [Example 380], the inhibition constant Ki (membranes from Peakr293 cells) worked out at 309 nM.
For the compound `Cc1ccc2[nH]c(-c3cccc(Br)c3)c(CCCN3CCC(c4cccc(NC(=O)C(C)C)c4)CC3)c2c1` [Example 763], the Ki (Peakr293 cell membranes) came to 1.9 nM.
The same measure, in the same setting: the same measure for `CCCS(=O)(=O)N[C@@H](CCN1CCC(c2cccc(NC(=O)C(C)C)c2)CC1)c1ccccc1` [Example 601]: 144 nM; for `CC(C)C(=O)Nc1cccc(C2CCN(CC[C@H](NC(=O)c3sccc3Cl)c3ccccc3)CC2)c1` [Example 593]: 7.6 nM.
On the same count and under the same terms, the same measure for `CCC(=O)Nc1cccc(C2CCN(CCCCC(=O)c3ccc(C(F)(F)F)cc3)CC2)c1` [Example 550]: 60.9 nM.
With `COc1ccc(C(=O)CCN2CCC(c3cccc(NC(=O)C(C)C)c3)CC2)cc1` [Example 119], the inhibition constant (Ki) (membranes from Peakr293 cells) is 75.7 nM.
On the same count and under the same terms, the same measure for `CC(C)C(=O)Nc1cccc(C2CCN(CC[C@H](NC(=O)C(c3ccccc3)c3ccccc3)c3ccccc3)CC2)c1` [Example 304]: 4 nM.
Turning to `CC(C)C(=O)Nc1cccc(C2CCN(CCCCC(=O)c3ccc(C(F)(F)F)cc3)CC2)c1` [Example 674], the Ki (Peakr293 cell membranes) turned out to be 39.6 nM.
On the same count and under the same terms, the figure for `Cc1ccc2[nH]c(-c3ccccc3)c(CCCCN3CCC(c4cccc(NC(=O)C(C)C)c4)CC3)c2c1` [Example 421] is 1.8 nM.
For the compound `CC(C)C(=O)Nc1cccc(C2CCN(Cc3ccc(-c4nc(C(C)(C)C)cs4)cc3)CC2)c1` [Example 229], the Ki (membranes from Peakr293 cells) was 885 nM.
Still for that read-out and setting: the same measure for `CC(C)C(=O)Nc1cccc(C2CCN(CCC(Oc3ccc(C(F)(F)F)cc3)c3ccc(F)cc3)CC2)c1` (stereo not drawn) [Example 137]: 25.2 nM; for `Cc1onc(-c2ccccc2)c1C(=O)OCCCN1CCC(c2cccc(NC(=O)C(C)C)c2)CC1` [Example 293, 3-{4-[3-(ISOBUTYRYLAMINO)PHENYL]-1-PIPERIDINYL}PROPYL 5-METHYL-3-PHENYL-4-ISOXAZOLECARBOXYLATE]: 39.9 nM.
As to `CC(C)C(=O)Nc1cccc(C2CCN(CCCc3c(-c4ccccc4I)[nH]c4c3ccc3ccccc34)CC2)c1` [Example 791], the inhibitory constant (Ki) (Peakr293 cell membranes) is 12.7 nM.
The same measure, in the same setting: the figure for `CC(C)C(=O)Nc1cccc(C2CCN(CCCCC(=O)c3cccc(Br)c3)CC2)c1` [Example 664] is 21.9 nM; for `CC(C)C(=O)Nc1cccc(C2CCN(CCCCCC(Oc3ccc(Cl)cc3)c3ccc(Cl)cc3)CC2)c1` (stereo not drawn) [Example 899] it is 18 nM.
